The source of these data is patent US20110190280A1, “Thiazole And Oxazole Kinase Inhibitors” (priority 2007, published 2011).

Counter-ions that a name gives are not always drawn.

For assay [1], the system named is A375P tumor cells. The assay is described as follows: Cell growth inhibition assay (CellTiter-Glo), A375P.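 Note: total ATP luminescence used as proxy for cell number, serial threefold compound dilutions at 0.2% DMSO, growth inhibition expressed versus DMSO vehicle-treated wells.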 Conditions: Homo sapiens, 72 h, read-out: Activity in A375P Tumor Cells.
In assay [2] the test system is SK-MEL-28 tumor cells. Put plainly: Cell growth inhibition assay (CellTiter-Glo), SK-MEL-28.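 Note: luminescent total ATP as a proxy for cell number, threefold serial dilutions at 0.2% DMSO, percent growth inhibition versus DMSO vehicle control wells.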 As to conditions: Homo sapiens, SK-MEL-28, 72 h, read-out: Activity in SK-MEL-28 Tumor Cells.
Assay [3] has as its system HT-29 tumor cells. The assay is described as follows: Cell growth inhibition assay (CellTiter-Glo), HT-29.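 Note: ATP content read by luminescence as proxy for cell number, growth inhibition versus DMSO vehicle wells, 0.2% DMSO final, nine serial threefold compound dilutions.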 As to conditions: Homo sapiens, HT-29, 72 h, read-out: Activity in HT-29 Tumor Cells.
In assay [4] the test system is SK-MEL-3 tumor cells. The assay is described as follows: Cell growth inhibition assay (CellTiter-Glo), SK-MEL-3.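 Note: human melanoma cells grown with compound for 3 days in 0.2% DMSO, total ATP read by luminescence as proxy for cell number, growth inhibition versus DMSO-treated wells.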 As to conditions: Homo sapiens, SK-MEL3, 72 h, read-out: Activity in SK-MEL-3 Tumor Cells.
Experimental: (§1) Cell Growth Inhibition Assays Human colon tumor cells (Colo205) were cultured in RPMI (Mediatech 50-020-PB) containing 10% FBS and 1% penicillin-streptomycin. […] Human melanoma cancer cells (A375-F11S) were cultured in RPMI (Mediatech 50-020-PB) containing 10% FBS, 1% sodium pyruvate, and 1% penicillin-streptomycin. Human colon cancer cells (HT-29) were cultured in high glucose DMEM (Mediatech 50-013-PB) containing 10% FBS and 1% penicillin-streptomycin. Human melanoma cancer cells (SK-MEL-3) were cultured in McCoy's 5A (50-025-PB) containing 15% FBS, and 1% penicillin-streptomycin. All cell lines were maintained at 37° C. in a humidified 5% CO2, 95% air incubator.
(§2) The next day, compounds were diluted as follows: For 96-well assays, 13.5 μl of compound in DMSO were diluted using nine (9) serial 1:3 dilutions of 4.5 μl in 9 μl of DMSO. Medium (270 μl/well of RPMI with 10% FBS and 1% penicillin-streptomycin) was added to the plates. Aliquots (7 μl) were added to cells in the final assay giving a final DMSO concentration of 0.2%. For 384-well assays, 15 μl of compound in DMSO were diluted using nine (9) serial 1:3 dilutions of 5 μl in 10 μl of DMSO, followed by a further dilution of 5 μl of compound with 95 μl of medium, of which 2 μl are added to cells in the final assay giving a final DMSO concentration of 0.2%. Cells were incubated at 37° C., 5% CO2 for 3 days.
(§3) Total ATP was measured (as a surrogate estimate of cell number) using CellTiter-Glo® (Promega G7571) reagent. Briefly, plates were removed from the incubator and allowed to equilibrate to room temperature for 30 minutes. CellTiter-Glo® (25 μl or 55 μl for 384-well or 96-well assays, respectively) reagent was added to each well and plates were shaken on an orbital plate shaker for 2 minutes. Plates were incubated without shaking for a further 30 minutes and read on an LJL Analyst GT reader in luminometer mode with an integration time of 0.5 seconds per well. Percent inhibition of cell growth was calculated relative to DMSO vehicle-treated control wells.
Assay [5] deals with Colo205 tumor cells. Put plainly: Cell growth inhibition assay (CellTiter-Glo), Colo205.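 Note: growth measured via total ATP luminescence (CellTiter-Glo) as a proxy for cell number, inhibition expressed against DMSO-treated control wells, 3-day exposure at 0.2% final DMSO.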 As to conditions: Homo sapiens, COLO 205, 72 h, read-out: Activity in Colo205 Tumor Cells.
Experimental: as §1, §2, §3
Assay [6] has as its target B-Raf (Homo sapiens, UniProt P15056). Put plainly: B-Raf Accelerated MEK ATPase assay (BRAMA). As to conditions: BRAMA enzyme assay; class by pIC50; read-out: B-Raf Activity. Format: biochemical. In a few lines:
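B-Raf activity read as intrinsic MEK ATPase: catalytic activated RAF with non-phosphorylated MEK drives ADP formation, coupled through pyruvate kinase and lactate dehydrogenase to NADH oxidation, independent of ERK phosphorylation.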

Sequence of B-Raf (P15056 whole entry): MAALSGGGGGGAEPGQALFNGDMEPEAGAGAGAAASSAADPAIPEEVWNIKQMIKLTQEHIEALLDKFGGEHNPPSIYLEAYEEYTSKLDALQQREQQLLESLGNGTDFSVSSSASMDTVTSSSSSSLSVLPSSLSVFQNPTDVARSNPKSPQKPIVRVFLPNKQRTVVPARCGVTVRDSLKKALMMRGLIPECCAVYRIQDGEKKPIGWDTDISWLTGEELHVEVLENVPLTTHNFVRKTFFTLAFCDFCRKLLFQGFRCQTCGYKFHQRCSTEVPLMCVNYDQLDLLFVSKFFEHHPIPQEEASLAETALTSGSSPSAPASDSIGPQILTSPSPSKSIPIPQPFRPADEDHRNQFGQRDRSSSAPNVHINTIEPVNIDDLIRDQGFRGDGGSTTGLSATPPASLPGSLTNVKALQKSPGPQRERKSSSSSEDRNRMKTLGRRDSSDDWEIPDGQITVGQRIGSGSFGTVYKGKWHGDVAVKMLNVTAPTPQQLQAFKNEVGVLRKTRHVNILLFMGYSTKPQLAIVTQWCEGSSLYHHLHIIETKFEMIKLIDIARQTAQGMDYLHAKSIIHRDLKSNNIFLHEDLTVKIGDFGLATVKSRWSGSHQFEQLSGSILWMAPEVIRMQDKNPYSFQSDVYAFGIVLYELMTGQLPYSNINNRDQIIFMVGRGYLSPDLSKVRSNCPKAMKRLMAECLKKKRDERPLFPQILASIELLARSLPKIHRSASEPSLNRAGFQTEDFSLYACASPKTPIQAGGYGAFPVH

Regarding `COc1cc(-c2nc(NC3CC3)sc2-c2ccnc(Nc3ccc(OCCN4CCCC4)c(Cl)c3)n2)ccc1Cl` [Example 51, 4-[4-[4-Chloro-3-(methyloxy)phenyl]-2-(cyclopropylamino)-1,3-thiazol-5-yl]-N-(3-chloro-4-{[2-(1-pyrrolidinyl)ethyl]oxy}phenyl)-2-pyrimidinamine], the IC50 was 500 to 5000 nM in assay [1]; 500 to 5000 nM in assay [2]; less than 500 nM in assay [3]; less than 500 nM in assay [4]; less than 500 nM in assay [5]; less than 100 nM in assay [6].

For the compound `COc1cc(OC)cc(-c2nc(NC3CC3)sc2-c2ccnc(Nc3ccc(O[C@@H]4CCN(CCF)C4)nc3)n2)c1` [Example 19, 4-[4-[3,5-Bis(methyloxy)phenyl]-2-(cyclopropylamino)-1,3-thiazol-5-yl]-N-(6-{[(3R)-1-(2-fluoroethyl)-3-pyrrolidinyl]oxy}-3-pyridinyl)-2-pyrimidinamine], the IC50 in assay [1] is less than 500 nM; in assay [2], less than 500 nM; in assay [3], less than 500 nM; in assay [4], less than 500 nM; in assay [5], less than 500 nM; in assay [6], less than 100 nM.

For `CCNc1nc(-c2cc(OC)cc(OC)c2)c(-c2ccnc(Nc3cc(OC)c(OC4CCN(CCS(C)(=O)=O)CC4)c(OC)c3)n2)o1` [Example 133], the IC50 in assay [1] is 500 to 5000 nM; in assay [2], 500 to 5000 nM; in assay [3], 500 to 5000 nM; in assay [4], 500 to 5000 nM; in assay [5], less than 500 nM; in assay [6] it was less than 100 nM.

Take `CCNc1nc(-c2cc(OC)cc(OC)c2)c(-c2ccnc(Nc3ccc(N4CCN(S(C)(=O)=O)CC4)nc3)n2)s1` [Example 2, 4-[4-[3,5-bis(methyloxy)phenyl]-2-(ethylamino)-1,3-thiazol-5-yl]-N-{6-[4-(methylsulfonyl)-1-piperazinyl]-3-pyridinyl}-2-pyrimidinamine]: the IC50 in assay [1] was less than 500 nM; in assay [2], less than 500 nM; in assay [3] it was less than 500 nM; in assay [4] it was less than 500 nM; in assay [5], less than 500 nM; in assay [6], less than 100 nM.

As to `CCc1nc(-c2cc(CO)cc(OC)c2)c(-c2ccnc(Nc3ccc(N4CCN(C(C)=O)CC4)nc3)n2)s1` [Example 65, [3-[5-(2-{[6-(4-Acetyl-1-piperazinyl)-3-pyridinyl]amino}-4-pyrimidinyl)-2-ethyl-1,3-thiazol-4-yl]-5-(methyloxy)phenyl]methanol], the IC50 in assay [1] is 500 to 5000 nM; in assay [2], 500 to 5000 nM; in assay [3], 500 to 5000 nM; in assay [4] it was 500 to 5000 nM; in assay [5], 500 to 5000 nM; in assay [6], less than 100 nM.

In the case of `CCNc1nc(-c2cc(OC)cc(OC)c2)c(-c2ccnc(Nc3ccc(N4CCOCC4)nc3)n2)o1` [Example 120], the IC50 in assay [1] is 500 to 5000 nM; in assay [2], 500 to 5000 nM; in assay [3] it was 500 to 5000 nM; in assay [4], 500 to 5000 nM; in assay [5] it was less than 500 nM; in assay [6], less than 100 nM.

In the case of `COCCN1CCN(c2ccc(Nc3nccc(-c4sc(NC5CC5)nc4-c4cc(OC)cc(OC)c4)n3)cn2)CC1` [Example 18, 4-[4-[3,5-Bis(methyloxy)phenyl]-2-(cyclopropylamino)-1,3-thiazol-5-yl]-N-(6-{4-[2-(methyloxy)ethyl]-1-piperazinyl}-3-pyridinyl)-2-pyrimidinamine], the IC50 in assay [1] is less than 500 nM; in assay [2], less than 500 nM; in assay [3] it was less than 500 nM; in assay [4] it was less than 500 nM; in assay [5], less than 500 nM; in assay [6] it was less than 100 nM.

Turning to `CCNc1nc(-c2cccc(N(C)C)c2)c(-c2ccnc(Nc3ccc(OCCN4CCCC4)c(Cl)c3)n2)s1` [Example 45, N-(3-Chloro-4-{[2-(1-pyrrolidinyl)ethyl]oxy}phenyl)-4-[4-[3-(dimethylamino)phenyl]-2-(ethylamino)-1,3-thiazol-5-yl]-2-pyrimidinamine], the IC50 in assay [1] was 500 to 5000 nM; in assay [2] it was 500 to 5000 nM; in assay [3] it was less than 500 nM; in assay [4], 500 to 5000 nM; in assay [5] it was 500 to 5000 nM; in assay [6], less than 100 nM.

For the compound `CCNc1nc(-c2cccc(N(C)C)c2)c(-c2ccnc(Nc3ccc(N4CCOCC4)nc3)n2)s1` [Example 47, 4-[4-[3-(Dimethylamino)phenyl]-2-(ethylamino)-1,3-thiazol-5-yl]-N-[6-(4-morpholinyl)-3-pyridinyl]-2-pyrimidinamine], the IC50 in assay [1] was less than 500 nM; in assay [2] it was greater than 5000 nM; in assay [3] it was less than 500 nM; in assay [4], less than 500 nM; in assay [5] it was 500 to 5000 nM; in assay [6] it was less than 100 nM.

For `CCNc1nc(-c2cc(OC)cc(OC)c2)c(-c2ccnc(Nc3ccc(OCCN(C)C)c(C)c3)n2)s1` [Example 106], the IC50 in assay [1] is less than 500 nM; in assay [2], 500 to 5000 nM; in assay [3], less than 500 nM; in assay [4], less than 500 nM; in assay [5], less than 500 nM; in assay [6], less than 100 nM.

With `CCNc1nc(-c2cc(OC)ccc2F)c(-c2ccnc(Nc3ccc(N4CCN(C)CC4)c(F)c3)n2)s1` [Example 56, 4-{2-(Ethylamino)-4-[2-fluoro-5-(methyloxy)phenyl]-1,3-thiazol-5-yl}-N-[3-fluoro-4-(4-methyl-1-piperazinyl)phenyl]-2-pyrimidinamine], the IC50 in assay [1] is less than 500 nM; in assay [2], 500 to 5000 nM; in assay [3] it was less than 500 nM; in assay [4], less than 500 nM; in assay [5], less than 500 nM; in assay [6] it was less than 100 nM.

Take `CCNc1nc(-c2cc(C)cc(OC)c2)c(-c2ccnc(Nc3ccc(N4CC[C@@H](F)C4)nc3)n2)o1` [Example 81]: the IC50 is 500 to 5000 nM in assay [1]; 500 to 5000 nM in assay [2]; 500 to 5000 nM in assay [3]; 500 to 5000 nM in assay [4]; 500 to 5000 nM in assay [5]; less than 100 nM in assay [6].

For `CCNc1nc(-c2cc(OC)cc(OC)c2)c(-c2ccnc(Nc3ccc(N4CCN(CCF)CC4)nc3)n2)o1` [Example 112], the IC50 in assay [1] is 500 to 5000 nM; in assay [2], 500 to 5000 nM; in assay [3], 500 to 5000 nM; in assay [4] it was 500 to 5000 nM; in assay [5] it was less than 500 nM; in assay [6], less than 100 nM.

For `CCNc1nc(-c2cc(C)cc(OC)c2)c(-c2ccnc(Nc3cc(OC)c(OC4CCN(CCS(C)(=O)=O)CC4)c(OC)c3)n2)o1` [Example 131], the IC50 is 500 to 5000 nM in assay [1]; 500 to 5000 nM in assay [2]; 500 to 5000 nM in assay [3]; less than 500 nM in assay [4]; less than 500 nM in assay [5]; less than 100 nM in assay [6].

On to `CCNc1nc(-c2cc(OC)cc(OC)c2)c(-c2ccnc(Nc3ccc(N4CCN(CC)CC4)cc3)n2)s1` [Example 5, 4-[4-[3,5-Bis(methyloxy)phenyl]-2-(ethylamino)-1,3-thiazol-5-yl]-N-[4-(4-ethyl-1-piperazinyl)phenyl]-2-pyrimidinamine trifluoroacetate], for which the IC50 in assay [1] is 500 to 5000 nM; in assay [2], 500 to 5000 nM; in assay [3], less than 500 nM; in assay [4], less than 500 nM; in assay [5], 500 to 5000 nM; in assay [6], less than 100 nM.

Turning to `COc1cc(OC)cc(-c2nc(NC3CC3)sc2-c2ccnc(Nc3ccc4c(c3)CN(C)CC4)n2)c1` [Example 15, N-{4-[4-[3,5-Bis(methyloxy)phenyl]-2-(cyclopropylamino)-1,3-thiazol-5-yl]-2-pyrimidinyl}-2-methyl-1,2,3,4-tetrahydro-7-isoquinolinamine], the IC50 is 500 to 5000 nM in assay [1]; 500 to 5000 nM in assay [2]; 500 to 5000 nM in assay [3]; less than 500 nM in assay [4]; 500 to 5000 nM in assay [5]; less than 100 nM in assay [6].

Regarding `CCNc1nc(-c2cc(C)cc(OC)c2)c(-c2ccnc(Nc3ccc(N4CCN(C)CC4)c(Cl)c3)n2)s1` [Example 31, N-[3-Chloro-4-(4-methyl-1-piperazinyl)phenyl]-4-{2-(ethylamino)-4-[3-methyl-5-(methyloxy)phenyl]-1,3-thiazol-5-yl}-2-pyrimidinamine], the IC50 in assay [1] was less than 500 nM; in assay [2], less than 500 nM; in assay [3], less than 500 nM; in assay [4], less than 500 nM; in assay [5] it was less than 500 nM; in assay [6], less than 100 nM.

In the case of `CCNc1nc(-c2cc(OC)cc(OC)c2)c(-c2ccnc(Nc3ccc(N4CCN(CCF)CC4)c(F)c3)n2)s1` [Example 8, 4-[4-[3,5-Bis(methyloxy)phenyl]-2-(ethylamino)-1,3-thiazol-5-yl]-N-{3-fluoro-4-[4-(2-fluoroethyl)-1-piperazinyl]phenyl}-2-pyrimidinamine], the IC50 in assay [1] was 500 to 5000 nM; in assay [2] it was less than 500 nM; in assay [3], less than 500 nM; in assay [4], less than 500 nM; in assay [5] it was less than 500 nM; in assay [6] it was less than 100 nM.
